Holding throughout (format): functional
For experiment [1], the species on record is Mus musculus. As to the kind of experiment: Induction of neuronal differentiation of neuronal progenitor cells isolated from embryonic mouse cerebrum assessed as increase in MAP2 mRNA expression at 1 uM by real time PCR analysis. For orientation: Real-time PCR tracks product formation cycle by cycle.
The species named for experiment [2] is Mus musculus. Kind of experiment: Induction of neuronal differentiation of neuronal progenitor cells isolated from embryonic mouse cerebrum at 1 uM treated every second day for 4 days and measured after 48 hrs by DAPI/MAP2 fluorescent immunostaining based assay.
Experiment [3] is described as follows: Induction of neuronal differentiation of neuronal progenitor cells isolated from embryonic mouse cerebrum assessed as increase in MAP2 mRNA expression at 1 uM by real time PCR analysis relative to control.

Active and inactive are the calls of the source. The rule behind the calls is not given here.

For `CC(C)=CCC/C(C)=C/CC1=C(C)C(=O)C(C)=C(C)C1=O`, the result in experiment [1] and in experiment [2] was Active. Also, the “fold change (FC)” value in experiment [3] is 2.
With `COC1=C(OC)C(=O)C(C/C=C(\C)CC/C=C(\C)CC/C=C(\C)CCC=C(C)C)=C(C)C1=O`, the result in experiment [1] and in experiment [2] was Active.
Consider `COC1=C(OC)C(=O)C(C/C=C(\C)CC/C=C(\C)CCC=C(C)C)=C(C)C1=O`, for which the result in experiment [2] was inactive.
As to `CC(C)=CCC/C(C)=C/CC/C(C)=C/Cc1ccccc1C`, the outcome in experiment [1] and in experiment [2] was inactive.
`CC(C)=CCC/C(C)=C/CC/C(C)=C/CC1=C(C)C(=O)C(C)=C(C)C1=O`: the outcome in experiment [1] and in experiment [2] was Active. In experiment [3], the “fold change (FC)” value is on record as 2.
For `CC(C)=CCC/C(C)=C/Cc1ccccc1C`, the outcome in experiment [1] and in experiment [2] was inactive.
For `CC(C)=CCC/C(C)=C/CC1=C(C)C(=O)c2ccccc2C1=O`, the result in experiment [1] and in experiment [2] was Active.
On to `CC(C)=CCC/C(C)=C/CC/C(C)=C/CC1=C(C)C(=O)c2ccccc2C1=O`, for which the outcome in experiment [1] and in experiment [2] was Active.
As to `CC(C)=CCC1=C(C)C(=O)c2ccccc2C1=O`, the result in experiment [1] and in experiment [2] was Active.
Take `CC(C)=CCC/C(C)=C/CC/C(C)=C/Cc1cccc(C)c1`: the outcome in experiment [1] and in experiment [2] was inactive.
For the molecule `CC(C)=CCC/C(C)=C/Cc1cccc(C)c1`, the result in experiment [1] and in experiment [2] was inactive.
In the case of `CC1=CC(=O)c2ccccc2C1=O`, in experiment [2], the outcome was Active.
Take `COC1=C(OC)C(=O)C(C/C=C(\C)CCC=C(C)C)=C(C)C1=O`: the outcome in experiment [2] was inactive.

For the origin of these results see ChEMBL document CHEMBL4619710, “Study on structure-activity relationship of vitamin K derivatives: Conversion of the naphthoquinone part into another aromatic ring and evaluation of their neuronal differentiation-inducing activity” (2020).
